“Also recorded” adds a separate entry of the source.
Columns and labels:
U-937 cells [1] = assay: High-throughput cell death assay on library members (MTS/PMS); type: cell-based, human; details: library members at 100 μM, 24 hours
Procedure: A three-tiered system was devised to identify compounds that selectively induce apoptosis in cancer cells. First, all compounds were screened at 100 μM in a high-throughput manner for their ability to induce death in two cancer cell lines, HL-60 (leukemia) and U-937 (lymphoma).
Test compounds were transferred into the wells using a 96-pin transfer apparatus (V & P Scientific, San Diego Calif.) that transfers 0.2 μL of compound. The compounds were made up as 50 mM stock solutions in 100% EtOH, so one transfer gave a final concentration of 100 μM. Controls were performed in which only EtOH (containing no compound) was pin-transferred into wells containing cells. The cells were incubated with the compounds for 24 hours, and then cell death was quantitated.

in vitro = type: cell-based, human; details: human
U-937 cells [2] = assay: Analysis of mitochondria depolarization by flow cytometry (JC-9 dye); type: cell-based, human
Procedure: Further experiments assessed whether the observed death from 12-D, 13-D, and 15-D was due to apoptosis or necrosis.
Analysis of Mitochondria Depolarization by Flow Cytometry: The depolarization of the mitochondrial membrane was measured by the fluorescence emitted by the JC-9 dye (Molecular Probes, Eugene Oreg.). 100 μM of 13-D or 10 μM etoposide in 1 μL of EtOH were added to cell culture flasks containing 50 mL of 10×10^6 U-937 cells/mL. […] 10 μg of the JC-9 dye was added to 1×10^6 cells in 1 mL and incubated at room temperature for 10 min. Cells were washed twice with PBS and resuspended in a final volume of 500 μL PBS. The fluorescence intensity of each cell was determined by flow cytometry at 525 nm (channel 1 green) and 675 nm (channel 4 red). 50,000 cells were analyzed in each experiment. The data was then analyzed using Summit Software (Cytomation, Fort Collins Colo.) and the number of cells within the upper left region, viable cells, was determined.
Apoptotic assays. To determine whether the observed death was due to apoptosis or necrosis, several apoptotic hallmarks were examined. Thus early stage (mitochondrial membrane depolarization), middle stage (caspase-3 like activation, PARP-1 cleavage) and late stage (chromatin condensation, phosphatidylserine exposure, membrane blebbing) biochemical events were monitored. The depolarization of mitochondrial membranes facilitates the release of pro-apoptotic proteins such as cytochrome c and AIF (apoptosis inducing factor) from the mitochondria into the cytosol. Several dyes, including JC-9, have been developed that provide a sensitive readout on this process. […] The release of pro-apoptotic stimuli from the mitochondria initiates a cascade of events that ultimately results in the activation of the “executioner” caspases, typically caspase-3 and caspase-7. The caspase-3-like activity of the cells can be monitored with peptidic substrates. […] PARP-1 cleavage. A final event in apoptosis is the exposure of phosphatidylserine on the outer leaflet of the cell membrane; this event allows for recognition of apoptotic cells by phagocytes, ultimately leading to the engulfment of the apoptotic cell and the recycling of the various cellular components.

[3] = test system: etoposide induced apoptosis; assay: Inhibition of etoposide induced apoptosis; type: cell-based
cell cycle = assay: Cell cycle analysis, DNA content by flow cytometry of propidium iodide stained cells; type: cell-based; details: position of cell cycle arrest
Procedure: Cell cycle analysis and NCl screen. The data in FIG. 21 and Table 11 show potential structure-activity trends. Several amides derived from the triphenylacetic acid (TPA) and triphenylpropionic acid (TPP) building blocks induced a high degree of cell death in this assay. Experiments were conducted to determine the position on the cell cycle at which these compounds arrest cell growth. This is typically determined by assessing the DNA content as measured flow cytometry analysis of cells stained by propidium iodide. Flow cytometry data is presented in FIG. 22, along with control data. […] One of the active apoptotic inducers identified from this combinatorial library that was not derived from the TPA or TPP building blocks (x) also arrests cell growth in the G2/M phase as indicated by the data in FIG. 22B. However, compounds containing the triphenylacetic acid and triphenylpropionic acid building blocks all arrest cell growth in the G1 phase (FIG. 22C and FIG. 22D). Here compounds x and y correspond to compounds Z2 and Z3.

[4] = test system: caspase-3 like protease activity in U-937 cells; assay: Caspase-3 activity assay (Ac-DEVD-pNA cleavage by cell lysates); type: cell-based, human; details: 100 μM
Procedure: Caspase-3 Activity Assay: The amount of caspase-3 like protease activity was determined by the amount of Ac-DEVD-pNA (N-acetyl-Asp-Glu-Val-Asp p-nitroanilide) cleaved per minute by cell lysates. To accomplish this, 100 μM of 13-D was added to cell culture flasks containing 50 mL of 10×10^6 U-937 cells/mL at 72, 48, 36, 24, 12 and 0 hours before harvesting. Cells were harvested by centrifugation, counted and diluted with RPMI 1640 media to a concentration of 4×10^6 cells/mL. 100 μL of the diluted cells were added to the wells of a 96-well plate in quadruplicate. The plate was then spun at 1000×g for 5 minutes to pellet the cells. […] The slope of the linear portion for each compound was then determined and any cleavage of the substrate in the control wells was subtracted out. The amount of Ac-DEVD-pNA cleaved in pmol/min was then calculated and plotted.
Apoptotic assays. […] Thus early stage (mitochondrial membrane depolarization), middle stage (caspase-3 like activation, PARP-1 cleavage) and late stage (chromatin condensation, phosphatidylserine exposure, membrane blebbing) biochemical events were monitored. […] Several dyes, including JC-9, have been developed that provide a sensitive readout on this process. […] The caspase-3-like activity of the cells can be monitored with peptidic substrates. […]

T cells = type: cell-based, mouse
Excerpt: Erythrocytes were selectively lysed and the T cells were highly enriched by using a mouse erythrocyte lysing kit and a mouse T cell enrichment column (R & D Systems, Minneapolis Minn.). FITC labeled anti-TCR antibodies were used to determine the purity of T cells in pre- and post-column samples. The T cells were enriched from approximately 35% to 90% of the total cell population (see FIG. 6A, 6B below). […] These cells were either stimulated to grow (by addition of ConA to a concentration of 2.5 μg/mL) or left untreated. […] After the 72 hours of incubation, 200 μL of cells were diluted in 300 μL PBS. Propidium iodide was then added to a concentration of 1 μg/mL. Cells were then incubated at room temperature for 5 minutes and analyzed by flow cytometry. The fluorescene intensity of each cell was determined at 620 nm (channel 3) and at least 50,000 cells were analyzed for each experiment (FIG. 7A, 7B, below). The data was then analyzed using Summit Software (Cytomation, Fort Collins Colo.) and the number of viable cells was determined. Non-concanavalin A stimulated T cells were also treated with 13-D, and viable cells in these samples were determined by PI staining (as above).
FIG. 7A illustrates flow cytometry data from Concanavalin A stimulated T cells; region R1 indicates 86.4% viable cells. […]

U-937 cells [5] = assay: Microscopy of treated cells; type: cell-based, human; details: 100 μM
Procedure: Compound 13-D was added to make a final concentration of 100 μM. Pictures of the cells were taken at various times using a Carl Zeiss confocal microscope (Carl Zeiss, Thornwood N.Y.). Picture at 100×; FIG. 9B. Picture at 100×; FIG. 10A. Picture at 400×; FIG. 10B. Picture at 400×; FIG. 10C. Picture at 400×; and FIG. 11. Picture at 200×.

splenocytes = assay: Splenocyte toxicity assay (concanavalin A stimulated, MTS/PMS); details: 72 h
Procedure: For this experiment, the spleen from a euthanized mouse was harvested, and the splenocytes isolated.
Splenocyte Toxicity Assay: Splenocytes were isolated from the spleen of a 7-month old male C57Black/6 mouse and suspended in 1 mL RPMI 1640+10% FBS+2.5 μg/mL concanavalin A. These cells were counted and diluted so that 2.5×10^5 cells were seeded in to each well containing a total of 200 μL of media. […] 1 μL of EtOH was added to separate control wells. After 72 hours of incubation, 20 μL of the MTS/PMS CellTiter 96 Cell Proliferation Assay reagent (Promega, Madison Wis.) was added to each well. The plates were incubated at 37° C. for approximately two hours until the colored product formed and the absorbance was then measured at 490 nm in a Spectra Max Plus 384 plate reader (Molecular Devices, Sunnyvale Calif.).

Row | Compound | Induction of death in U-937 cells (percentages of cell death) (U-937 cells [1]) [%] | IC50 at 72 h (in vitro) [µM] | observed death due to apoptosis or necrosis (U-937 cells [2]) | further results
1 | COc1cc(/C=C/C(=O)NC[C@@H](O)c2ccccc2)ccc1O (stereo in doubt) [Compound 12-D, 3-(4-Hydroxy-3-methoxy-phenyl)-N-(2-hydroxy-2-phenyl-ethyl)-acrylamide] | 82 | 61 | induced some apoptosis, some necrosis | –
2 | COc1cc(/C=C/C(=O)NC[C@H](O)c2ccc(O)cc2)ccc1O [Compound 15-D, N-[2-(R)-Hydroxy-2-(4-hydroxy-phenyl)-ethyl]-3-(4-hydroxy-3-methoxy-phenyl)-acrylamide] | 89 | 109 | induced some apoptosis, some necrosis | –
3 | COc1cc(/C=C/C(=O)NC[C@@H](OC)c2ccc(O)cc2)ccc1O [Compound 9-D, 3-(4-Hydroxy-3-(S)-methoxy-phenyl)-N-[2-(4-hydroxy-phenyl)-2-methoxy-ethyl]-acrylamide] | 20 | 273 | – | activity in assays exploring inhibition of etoposide induced apoptosis [3]: Neither compound 1 nor any library members showed activity
4 | CC(=O)O[C@H]1C(=O)[C@@]2(C)[C@H]([C@H](OC(=O)c3ccccc3)[C@]3(O)C[C@H](OC(=O)[C@H](O)[C@@H](NC(=O)c4ccccc4)c4ccccc4)C(C)=C1C3(C)C)[C@]1(OC(C)=O)CO[C@@H]1C[C@@H]2O [Taxol] | – | – | – | cell cycle arrest (cell cycle): mitotic (M) phase arrest
5 | COc1cc(/C=C/C(=O)NC[C@@H](O)c2ccc(O)cc2)ccc1O [Compound 13-D, N-[2-(S)-Hydroxy-2-(4-hydroxy-phenyl)-ethyl]-3-(4-hydroxy-3-methoxy-phenyl)-acrylamide] | 87 | 44 | induced apoptosis | caspase-3 activity [4]: strong induction of caspase-3 activity; cell population in which apoptosis is induced (JC-9 staining) (U-937 cells [2]; 100 μM, 72 h): over 70%; viable cells, treated versus non-treated control cells (T cells): no difference was observed; microscopy, evidence of apoptosis (U-937 cells [5]): membrane blebbing and cell shrinkage; toxicity towards actively dividing splenocytes (splenocytes; 500 μM): virtually no death; also recorded: virtually no toxicity; IC50 (splenocytes; Mus musculus, Splenocyte, read-out: IC50 for non-cancerous splenocytes): > 1000 µM

From patent publication US7632972B2, “Compounds and methods for treatment of cancer and modulation of programmed cell death for melanoma and other cancer cells” (The Board of Trustees of the University of Illionis, priority 2003, dated 2009)
